{
  "source": "patent US20040229791A1",
  "about": "“Compositions and methods of modulating TGF-beta activity by fatty acids” (priority 2002, published 2004)",
  "key": {"[1]": {"test_system": "p3TP-Lux in transfected Mv1Lu cells", "assay": "Luciferase assay, p3TP-Lux TGF-β-responsive promoter construct", "format": "cell-based, mink", "conditions": "for reversal of α2M* inhibition of TGF-β2-induced luciferase activity: 200 μg/ml α2M*", "description": "One of the prominent biological activities of TGF- ? is transcriptional activation of plasminogen activator inhibitor-1 (PAI-1) and fibronectin (1-4). The effect of fatty acids on the inhibition by. α2M* of a TGF- ? -responsive promoter construct p3TP-Lux was determined in transfected Mv1Lu cells. The p3TP-Lux contains the PAI-1 promoter and 3 repeats of a phorbol-12-myristate-13-acetate (TPA)-responsive element (29).\nLuciferase Assay—Mv1Lu cells which had been plated on 12-well clustered dishes at a cell density of approximately 0.8-1.0×10^5 cells/plate were transfected with 4-6 μg of p3TP-Lux using the calcium phosphate method (24). After 12 hr, the transfected cells were washed with phosphate buffered saline and allowed to grow in a medium containing 10% fetal calf serum for 12 hr. The medium was changed to DMEM with low serum concentration (0.2% fetal calf serum) and the cells were incubated for 4-6 hr. The cells were then treated for 20 hr with TGF-.β2 (0, 50 or 100 pM), α2M* (0 or 200 μg/ml) and arachidonic acid (0, 12.5 or 25 μM) in the same low-serum medium. The cells were harvested and assayed for luciferase activity using the Promega kit according to the manufacturer's protocol. The luciferase activity was assayed in triplicate cell cultures and measured as arbitrary units (A.U.)."}, "[2]": {"assay": "Plasma clearance of 125I-TGF-β2 with and without α2M* and arachidonic acid", "format": "in vivo, mice", "conditions": "control experiments, no α2M*", "description": "TGF ? β1-α2M* and TGF- ? 2- ? 2M* complexes are cleared from plasma by the ? liver (30). To test the possibility that fatty acids may be able to affect the plasma clearance of TGF ? β and α2M* complexes, ^125I-TGF ? β1 or ^125I-TGF- ? 2 were prei presence or absence of 10 μM arachidonic acid at room temperature for 30 min, and then injected into mice via tail vein according to published procedures (19). At several time intervals (10 sec, 1, 2, 3, 5, 10, 15, 20, 30 and 60 min) about 50 μl of blood was collected and counted by a γ-counter. […] The t 1+α2M* or ^125I-TGF- ? 2+α2M* were approximately 4 min. These twith published values of free ^125I-TGF- ? 1,2 and ^125I-TGF- ? 1,2-α2M* complexes, respe (19). In the presence of arachidonic acid, the t1/2s of ^125I-TGF ? β1+α2M* and ^125I-TGF α2M* were decreased to approximately 1-2 min; these are essentially identical to the t1/2s of free ^125I-TGF- ? 1 and ^125I-TGF ? β2 (FIGS. 7A and B). In control experiments, arachidonic acid did no affect the plasma clearance of free ^125I-TGF ? β1 and ^125I-TGF- ? 2.\nPlasma clearance of ^125I-TGF ? β in the presence and absence of ? 2M*-^125I-TGF- ? 1 nM) or ^125I-TGF- ? 2 (1 nM) was pre-incubated with ? […] The radioactivity in the blood sample obtained at 10 s was taken as 100%."}, "[3]": {"biological_target": "T1, α2M* and basic fibroblast growth factor (bFGF) (Homo sapiens, UniProt P01023)", "T1 sequence (P01023 24-1474)": "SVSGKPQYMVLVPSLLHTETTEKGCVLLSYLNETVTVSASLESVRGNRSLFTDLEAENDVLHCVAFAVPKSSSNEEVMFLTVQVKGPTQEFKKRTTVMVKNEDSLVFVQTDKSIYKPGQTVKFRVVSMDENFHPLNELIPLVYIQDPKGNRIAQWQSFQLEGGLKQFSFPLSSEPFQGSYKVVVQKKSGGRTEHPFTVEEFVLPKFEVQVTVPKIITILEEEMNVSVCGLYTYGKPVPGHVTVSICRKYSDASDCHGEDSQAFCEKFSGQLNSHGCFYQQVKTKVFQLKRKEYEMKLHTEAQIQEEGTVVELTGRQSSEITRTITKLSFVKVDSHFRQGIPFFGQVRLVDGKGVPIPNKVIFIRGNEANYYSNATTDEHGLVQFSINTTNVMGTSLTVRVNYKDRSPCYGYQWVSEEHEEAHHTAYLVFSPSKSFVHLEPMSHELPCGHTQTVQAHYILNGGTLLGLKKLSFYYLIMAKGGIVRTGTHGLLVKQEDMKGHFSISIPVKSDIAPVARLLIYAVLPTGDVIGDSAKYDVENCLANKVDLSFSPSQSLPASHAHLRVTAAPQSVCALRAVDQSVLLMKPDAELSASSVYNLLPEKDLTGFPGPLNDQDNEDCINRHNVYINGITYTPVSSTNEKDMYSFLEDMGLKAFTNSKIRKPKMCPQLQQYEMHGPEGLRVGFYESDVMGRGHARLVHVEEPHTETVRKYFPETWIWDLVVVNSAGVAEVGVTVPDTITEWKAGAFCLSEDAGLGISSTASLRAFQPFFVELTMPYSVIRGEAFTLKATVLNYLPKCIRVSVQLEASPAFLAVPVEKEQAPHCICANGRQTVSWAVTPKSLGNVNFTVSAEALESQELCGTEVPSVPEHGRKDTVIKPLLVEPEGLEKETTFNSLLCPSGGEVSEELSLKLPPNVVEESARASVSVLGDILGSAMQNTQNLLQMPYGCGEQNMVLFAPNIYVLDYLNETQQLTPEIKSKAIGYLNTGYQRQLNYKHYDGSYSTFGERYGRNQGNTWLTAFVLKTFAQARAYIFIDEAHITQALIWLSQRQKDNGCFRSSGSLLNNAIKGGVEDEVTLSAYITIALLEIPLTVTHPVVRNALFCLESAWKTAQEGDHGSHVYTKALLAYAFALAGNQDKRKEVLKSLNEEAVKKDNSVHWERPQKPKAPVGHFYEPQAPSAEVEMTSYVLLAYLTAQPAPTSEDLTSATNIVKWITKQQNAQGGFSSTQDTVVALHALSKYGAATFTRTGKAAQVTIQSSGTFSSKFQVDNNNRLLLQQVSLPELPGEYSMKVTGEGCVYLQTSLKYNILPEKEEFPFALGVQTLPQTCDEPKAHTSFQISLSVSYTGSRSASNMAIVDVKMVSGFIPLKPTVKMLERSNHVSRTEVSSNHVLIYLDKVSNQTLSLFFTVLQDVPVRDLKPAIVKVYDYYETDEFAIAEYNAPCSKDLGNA", "assay": "Complex formation between α2M* and basic fibroblast growth factor", "format": "binding"}},
  "data": [
    {"smiles": "CCCCC/C=C\\C/C=C\\C/C=C\\C/C=C\\CCCC(=O)O", "note": "[arachidonic acid]", "values": [
      {"measurement": "reversal of α2M* inhibition of TGF-β2-induced luciferase activity", "setting": "[1]; 12.5 μM arachidonic acid", "result": "completely reversed"},
      {"measurement": "reversal of α2M* inhibition of TGF-β2-induced luciferase activity", "setting": "[1]; 25 μM arachidonic acid", "result": "completely reversed"},
      {"measurement": "effect on luciferase activity in cells treated with and without TGF-β2 in the absence of α2M*", "setting": "[1]; 12.5 and 25 μM, absence of α2M*", "result": "did not influence the luciferase activity"},
      {"measurement": "effect on plasma clearance of free 125I-TGF-β2", "setting": "[2]", "result": "did no affect"},
      {"measurement": "blocking of complex formation between α2M* and bFGF", "setting": "[3]", "result": "block complex formation"}
    ]}
  ]
}
